Series [1] deals with T1, STS (Homo sapiens, UniProt P08842).
T1 sequence (P08842 22-583): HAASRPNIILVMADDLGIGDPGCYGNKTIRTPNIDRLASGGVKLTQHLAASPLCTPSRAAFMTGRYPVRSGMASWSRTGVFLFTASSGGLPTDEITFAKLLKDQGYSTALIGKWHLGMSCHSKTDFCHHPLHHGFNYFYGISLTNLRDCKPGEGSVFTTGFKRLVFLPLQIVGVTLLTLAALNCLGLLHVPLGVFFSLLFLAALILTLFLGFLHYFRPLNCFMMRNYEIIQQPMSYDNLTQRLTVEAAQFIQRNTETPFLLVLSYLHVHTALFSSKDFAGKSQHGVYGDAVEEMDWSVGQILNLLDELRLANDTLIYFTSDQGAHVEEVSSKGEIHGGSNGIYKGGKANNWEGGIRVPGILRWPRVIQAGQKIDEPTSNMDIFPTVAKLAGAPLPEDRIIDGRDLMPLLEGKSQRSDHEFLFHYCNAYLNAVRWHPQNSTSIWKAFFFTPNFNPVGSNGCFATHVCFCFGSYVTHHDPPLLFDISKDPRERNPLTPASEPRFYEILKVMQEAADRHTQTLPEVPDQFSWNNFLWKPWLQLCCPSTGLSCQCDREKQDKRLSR
To be noted: cited from earlier work.

Series [2] concerns the target T1, STS. The note with it: cited from earlier work. This is another data set of the same source.
The target in the next series is T2, STS activity in PBMCs (Homo sapiens, UniProt P08842).
T2 construct: Pharmacodynamic properties were investigated by assessment of the STS activity in PBMCs; endogenous in cells; host or cells: peripheral blood mononuclear cells (PBMCs) of dosed women
T2 sequence (P08842 22-583): T1 sequence (P08842 22-583)
The series is described as follows: STS activity in PBMCs, Example 2 (LC-MS/MS). It is filed as in vivo. To be noted: E2MATE 4 mg weekly and/or NETA 10 mg daily for 4 weeks.

Series [3] deals with T3, Steroid Sulfatase in endometrium (Homo sapiens, UniProt P08842).
T3 construct: from tissue; host or cells: endometrium (biopsies) of dosed women
T3 sequence (P08842 22-583): T1 sequence (P08842 22-583)
The series is described as follows: STS activity in endometrium, Example 2 (LC-MS/MS). The format is in vivo. The note with it: E2MATE 4 mg weekly and/or NETA 10 mg daily for 4 weeks.
Protocol: (§1) STS activity was determined by spiking specimens with labelled E1-S and by measuring its conversion to E1 per gram protein under standardized incubation conditions using LC-MS/MS. Protein concentration was evaluated with a validated colorimetric assay (Bradford method).

A further series relates to E2 and P4; T and D4A. The series is described as follows: Hormone profiles (E2, P4, T, D4A), Example 2. The format is in vivo, human. As for the experimental part:
Hormone profiles were determined as described in Example 1.

The nature of series [4]: Safety, tolerability and post-treatment menstruation cycles, Example 2. To be noted: follow-up, ultrasound. From the text:
Menstruation cycle length was not influenced by the treatment. […] Sizes of right and left ovary differed slightly for each subject, but no clinically relevant changes were identified by the gynaecologists.

Protocol for STS activity in PBMCs: as §1

For `C[C@]12CCC3c4ccc(OS(N)(=O)=O)cc4CCC3C1CCC2=O` (stereo partly drawn) [EMATE, Estrone-3-o-sulfamate], the STS inhibition entry on STS [1] is “active STS inhibitors”.
In the case of `NS(=O)(=O)Oc1ccc2c3c(c(=O)oc2c1)CCCCC3`, the “blocking STS activity in both eutopic and ectopic tissues” value at STS [2] was “effective in blocking STS activity”.
As for `C#C[C@]1(OC(C)=O)CC[C@H]2[C@@H]3CCC4=CC(=O)CC[C@@H]4[C@H]3CC[C@@]21C` [NETA, norethindrone (norethisterone) acetate, reference compound], the “mean percentage inhibition of STS activity in PBMCs” value on STS activity in PBMCs (Day 4) was found to be 12%. The “average inhibition of STS activity in PBMCs” value on STS activity in PBMCs is 4%. In series [3], the “AVG [%] average inhibition of Steroid Sulfatase in endometrium (average effect over time (AUC))” value was 14.9 (27.0) % and the “Emax [%] maximal inhibition of Steroid Sulfatase in endometrium” value is listed as 46.7 (42.8) %. Besides, the “mean concentration-time profiles in E2 and P4” value in the series with E2 and P4; T and D4A (first cycle up to Day 29, normal increase on Day 43) was “suppressed”. The “mean concentration-time profiles for T and D4A” value with E2 and P4; T and D4A (multiple dose administration) is recorded as “No relevant differences”. Moreover, the ovarian size result in series [4] is reported as “no apparent effect”.

(Values after patent US20150065470A1, “Steroid Sulfatase Inhibitor Regimen for the Treatment of Endometriosis” (priority 2012, published 2015).)
